# From patent US20240252583A1, “Compositions and Methods for Treating Persistent Postsurgical Pain” (priority 2021, published 2024)
# Read-outs that look alike come from different tables or passages of the source.
# Tests used:
# CX3CR1 = CX3CR1 (Homo sapiens, UniProt P49238); details: CX3CL1 2.5 nM, FIG. 8
# Experimental: All peptides were purified to >95% homogeneity and verified by HPLC isolation, amino acid analysis, and mass spectroscopy. Peptides were dissolved in sterile water and stored as frozen (−20° C.) aliquots at 0.1 mM until use. Chemotaxis was assayed in 96-well plates (NeuroProbe, Cabin John, MD) with […] pore size, PVP-free membranes. Purified human monocytes (>95%) prepared from healthy adult human donors by centrifugal elutriation (>95% pure) were resuspended in chemotaxis assay buffer (DMEM supplemented with 0.1% BSA) at a density of 2×10^6 cells/ml. Cells were labelled with 1.0 μM Calcein AM (Invitrogen) for 30 minutes at 37° C., 5% CO2. Following incubation, cells were washed once and resuspended in chemotaxis assay buffer (DMEM, 1 mg/ml BSA, 25 mM Hepes) at a density of 2×10^6 cells/ml. […] The filter plate ([…] pore size, PVP-free membrane) was snapped on over the filled wells and the monocytes were loaded onto the upper filter surface ([…] in 25 μl). […] At the conclusion of the test period, non-migrating cells were wiped off the upper filter surface and relative fluorescence units (RFUs) of the migrating cells from the lower surface determined by bottom reading in a spectrometer (M5 SpectraMax) at 485/530 nm (Ex/Em). Triplicate determinations were made and results are expressed as the mean Relative Fluorescence Units as depicted in FIG. 8.
# plasma cytokines = assay: Plasma cytokine measurements in patients treated with DAPTA (capillary electrophoresis and ELISA); assay type: in vivo, humans
# Description: The specific cytokines IL-1β, IL-10 and IL-12 have been identified as imbalanced following total knee replacement surgeries which increases risk for persistent post-operative pain. Measurement of these cytokines may be used to predict response to therapy, such as treatment by any of the peptides, salts thereof, or compositions of these, including those herein. Since the administration of the peptide DAPTA normalizes multiple plasma cytokines associated with PPSP then DAPTA and other analogs as we have described may be used to treat chronic pain conditions, specifically PPSP. Five HIV patients received DAPTA, 3 mgs/day, by metered nasal spray for 6 to 8 weeks (mean 7+0.6 wks). Patients were not taking other concurrent anti-pain or anti-retroviral therapies. At the beginning and end of the study period heparinized blood was collected and immediately clarified by centrifugation. Plasma aliquots were made and stored frozen at −70 C° for further testing. All sample testing was done on blinded samples at independent testing centers.
# Cytokine measurements in patients treated with DAPTA were made after capillary electrophoresis isolation of individual cytokine peaks, followed by enzyme-linked immunoassay using specific antibodies. […] Separated chemical compounds appear as peaks with different migration times in an electropherogram. The purified sample peaks were individually collected and concentration determined by a quantitative enzyme-linked immunosorbent assay (ELISA) using specific antibodies to determine the analyte concentration.
# obesity = details: oral, daily administration for 3 weeks
# Experimental: A subject is diagnosed with obesity. The subject is prescribed a dosing regimen of a pharmaceutical composition. The pharmaceutical composition comprises a therapeutically effective amount of RAP-103. RAP-103 is administered orally to treat obesity.
# [1] = system: STZ-induced diabetic neuropathic pain
# Experimental: Chronic pain development was determined with behavior and molecular/cellular testing and inflammatory reactions in Streptozotocin (STZ)-induced diabetic rats treated with RAP-103.
# (§1) Induction and assessment of diabetes in rats: Rats were fasted overnight and given a single intraperitoneal injection of STZ (60 mg/kg, Sigma-Aldrich) in citrate buffer (pH 4.5) to induce type I diabetes. The induction of diabetes was confirmed 72 h post-injection by blood glucose levels (Contour® blood glucose diagnostic kit, Bayer HealthCare, Canada). Body weight and blood glucose levels were measured before and 3 days post-STZ injection and once a week for three weeks post-diabetes induction. Only rats with blood glucose concentration consistently higher than 300 mg/dl were used for the study. Rats used for the study were monitored for persistent mechanical and cold allodynia (up to five months post-induction) and only animals with persistent pain were used.
# This solution was prepared freshly for each experiment and kept for 8 days (duration of one experiment) at room temperature. Appropriate concentration for each dose was adjusted accordingly.
# Treatment paradigms: Autoclaved water (vehicle) or RAP-103 (0.004, 0.02, 0.1 or 0.5 mg/kg b.w.) was administered daily for 8 days by oral gavage to rats with stable mechanical and cold allodynia (n=5 H2O; n=7 RAP-103).
# Assessment of neuropathic pain: Tactile allodynia, mechanical sensitivity was assessed using calibrated. Animals were placed in plexiglass boxes on an elevated metal mesh floor and allowed 60 min for habituation before testing. A series of von Frey filaments with logarithmically incrementing stiffness (Stoelting) was applied perpendicular to the midplantar region of the hind paw. The 50% paw withdrawal threshold was determined using Dixon's up-down method. Withdrawal thresholds of both paws were averaged as one single value per animal.
# Cold Allodynia: was assessed using the same apparatus as the von Frey test. Rats were allowed to adapt to the testing environment for at least 10 min. Then, a drop (50 μl) of acetone was applied with a glass syringe fitted with a blunted needle at the centre of the plantar face of a hind paw. Responses were monitored during 1 min after acetone application and were graded according to a 4-point scale: 0, no response; 1, quick withdrawal, flick or stamp of the paw; 2, prolonged withdrawal or repeated flicking of the paw; 3, repeated flicking of the paw with persistent licking directed at the ventral side of the paw. Cumulative scores were then obtained by summing the four scores for each rat, the minimum score being 0 (no response to any of the four trials) and the maximum possible score being 12 (repeated flicking and licking of paws on each of the four trials). Rats were habituated to the testing environment. […] All data is presented as means±SEM. Statistical analysis was performed by two-way ANOVA followed by Bonferroni post-tests. The criterion for statistical significance was p<0.05.
# [2] = Brain entry and pharmacokinetics of RAP-103 after oral gavage and IV dosing; assay type: in vivo, rats and guinea pigs
# [3] = system: STZ-induced diabetic neuropathic pain; details: oral administration for 7 days, FIG. 4
# Experimental: as §1, with “used. […]” for “used.”
# Cold Allodynia: was assessed using the same apparatus as the von Frey test. Rats were allowed to adapt to the testing environment for at least 10 min. Then, a drop (50 μl) of acetone was applied with a glass syringe fitted with a blunted needle at the centre of the plantar face of a hind paw. Responses were monitored during 1 min after acetone application and were graded according to a 4-point scale: 0, no response; 1, quick withdrawal, flick or stamp of the paw; 2, prolonged withdrawal or repeated flicking of the paw; 3, repeated flicking of the paw with persistent licking directed at the ventral side of the paw. […]
# [4] = system: mRNAs encoding CCL2, CCL3, CCR2, CCR5, IL1β, and TNFα
# [5] = system: post-incisional mechanical allodynia; details: RAP-103 0.5 mg/kg i.p.
# Description: Data are expressed as mean±standard error of the mean (S.E.M.), and p<0.05 was accepted as statistically significant.
# [6] = Plasma bioavailability and elimination half-life of RAP-103 (species not stated); assay type: in vivo; details: oral, i.p., ss, and IV dosing
# stress from PPSP = details: oral pill, daily administration for one week
# Experimental: A subject is diagnosed with stress from PPSP. A subject is prescribed a dosing regimen of a pharmaceutical composition. The pharmaceutical composition comprises a therapeutically effective amount of RAP-103. RAP-103 is administered orally as a pill to treat the stress from PPSP.
# [7] = Plasma pharmacokinetics and acute tolerability of RAP-103 in non-human primates; assay type: in vivo, Rhesus macaques (Macaca mulatta)
# Experimental: In non-human primates (rhesus monkeys) RAP-103 was dosed once on Day 1 by intravenous bolus injection at 1 mg/kg and plasma levels determined. […] Drug in plasma after a single IV dose (1 mg/Kg) was still measurable at anticipated therapeutic levels 96 hrs. post-dose in non-human primates as shown in FIG. 2B.
# [8] = plasma, five HIV patients, 3 mgs/day nasal spray, 6 to 8 weeks
# [9] = partial nerve ligation and diabetic pain
# Sequence of CX3CR1 (P49238 whole entry): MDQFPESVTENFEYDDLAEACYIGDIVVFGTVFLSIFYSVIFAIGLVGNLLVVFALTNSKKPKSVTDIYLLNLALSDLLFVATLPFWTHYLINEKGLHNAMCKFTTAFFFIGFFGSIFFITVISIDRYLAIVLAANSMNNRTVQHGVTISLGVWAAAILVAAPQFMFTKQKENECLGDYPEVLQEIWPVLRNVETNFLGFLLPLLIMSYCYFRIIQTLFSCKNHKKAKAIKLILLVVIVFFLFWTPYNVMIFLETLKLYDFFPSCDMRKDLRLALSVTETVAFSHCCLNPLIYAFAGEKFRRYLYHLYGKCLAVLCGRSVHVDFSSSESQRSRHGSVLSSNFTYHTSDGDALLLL
compound,measurement,setting,value
all-D-ASTTTNYT [RAP-310],"CX3CR1 mediated human monocyte chemotaxis, % of control migration",CX3CR1; 0.01 pM,38 % of control migration
same,"CX3CR1 mediated human monocyte chemotaxis, % of control migration",CX3CR1; 1 pM,24 % of control migration
dASTTTNYT-NH2 [DAPTA],"cytokines IL-4, IL-10, IL-12 and IL-13","plasma cytokines; intranasal dosing, P<0.005",increased significantly
same,"plasma levels of IL-1β, IL-6, IL-8, and TNFα","plasma cytokines; intranasal dosing, P<0.005",significant reductions
same,IL-1β % CHANGE BASELINE to POST-DRUG,"plasma cytokines; plasma, **p < .005",−46%**
same,IL-2 % CHANGE BASELINE to POST-DRUG,"plasma cytokines; plasma, **p < .005",+395** %
same,IL-4 % CHANGE BASELINE to POST-DRUG,"plasma cytokines; plasma, **p < .005",+448** %
same,IL-6 % CHANGE BASELINE to POST-DRUG,"plasma cytokines; plasma, **p < .005",−28%**
same,IL-8 % CHANGE BASELINE to POST-DRUG,"plasma cytokines; plasma, **p < .005",−30%**
same,IL-10 % CHANGE BASELINE to POST-DRUG,"plasma cytokines; plasma, **p < .005",+350** %
same,IL-12 % CHANGE BASELINE to POST-DRUG,"plasma cytokines; plasma, **p < .005",+363** %
same,IL-13 % CHANGE BASELINE to POST-DRUG,"plasma cytokines; plasma, **p < .005",+416** %
same,TNFα % CHANGE BASELINE to POST-DRUG,"plasma cytokines; plasma, **p < .005",−23%**
same,IL-1β CYTOKINE MEAN ± s.e.m. Post-Treatment,plasma cytokines; [8],174 ± 26 pgs/ml
same,IL-2 CYTOKINE MEAN ± s.e.m. Post-Treatment,plasma cytokines; [8],57 ± 9 pgs/ml
same,IL-4 CYTOKINE MEAN ± s.e.m. Post-Treatment,plasma cytokines; [8],28 ± 8 pgs/ml
same,IL-6 CYTOKINE MEAN ± s.e.m. Post-Treatment,plasma cytokines; [8],130 ± 21 pgs/ml
same,IL-8 CYTOKINE MEAN ± s.e.m. Post-Treatment,plasma cytokines; [8],144 ± 76 pgs/ml
same,IL-10 CYTOKINE MEAN ± s.e.m. Post-Treatment,plasma cytokines; [8],45 ± 5 pgs/ml
same,IL-12 CYTOKINE MEAN ± s.e.m. Post-Treatment,plasma cytokines; [8],33 ± 7 pgs/ml
same,IL-13 CYTOKINE MEAN ± s.e.m. Post-Treatment,plasma cytokines; [8],30 ± 9 pgs/ml
same,TNFα CYTOKINE MEAN ± s.e.m. Post-Treatment,plasma cytokines; [8],260 ± 67 pgs/ml
"C[C@H](O)[C@@H](N)C(=O)N[C@@H](C(=O)N[C@H](CC(N)=O)C(=O)N[C@H](Cc1ccc(O)cc1)C(=O)N[C@@H](C(=O)O)[C@H](C)O)[C@H](C)O [RAP-103, All D-peptide-Thr-Thr-Asn-Tyr-Thr]",subject's weight,obesity,decreases
same,effect on mechanical allodynia by dose,[1]; 0.004 mg/kg daily oral,not
same,effect on mechanical allodynia by dose,[1]; 0.02 mg/kg daily oral,effective
same,effect on mechanical allodynia by dose,[1]; 0.1 mg/kg daily oral,effective
same,effect on mechanical allodynia by dose,[1]; 0.5 mg/kg daily oral,effective
same,time until reversal of hypersensitivity became significant,[1]; daily oral gavage,24 to 48 h
same,brain entry by oral compared to IV dosing,[2]; FIG. 2A,preferentially entered the brain by oral compared to IV dosing
same,brain entry,[2]; IV or oral gavage dosing,quickly entered the brain
same,persistence at therapeutic levels in brain,"[2]; IV or oral gavage dosing, FIG. 2A",at least 24 hrs
same,brain entry compared to plasma levels,[2]; in vivo,preferentially enters the brain compared to plasma levels
same,cold allodynia,[3],reductions
same,chemokine receptor CCR2,"[4]; neuropathic pain, FIG. 5",lowered
same,chemokine receptor CCR5,"[4]; neuropathic pain, FIG. 5",lowered
same,spinal cord mRNA encoding cytokines and chemokines,"[4]; oral administration for 7 days versus vehicle (H20), FIG. 5",reductions
same,CCL3,[4]; [9],significantly reduced
same,IL-1β,[4]; [9],significantly reduced
same,TNFα,[4]; [9],significantly reduced
same,increase of the potency of morphine,[5],over 2 fold
same,half-life,"[6]; in vivo, read-out: half-life (HL) elimination (converted)",~2.7 h
same,plasma bioavailability,[6],significant plasma bioavailability
same,stress and pain in patient suffering from PPSP,stress from PPSP,reduced
same,Cmax and AUC 0-T in male versus female monkeys,[7]; 1 mg/kg,comparable
same,RAP-103-related changes in clinical observations or body weights,[7]; over seven days after dosing,no acute toxicity
same,time post-dose at which drug in plasma was still measurable at anticipated therapeutic levels,"[7]; single IV dose 1 mg/Kg, FIG. 2B",≥ 96 h
